The structures appear in SMILES notation.

The results in this text go back to patent publication US4325970A, “15-Acetyl-prostaglandins” (Hoffmann-La Roche Inc., priority 1980, dated 1982).

The experiment relates to gastric secretion. Briefly: gastric secretory depressant test in the unanesthetized rat with acute gastric fistula (acid concentration, acid output, pH). It counts as in vivo. The following applies: 10 μg/kg b.w. I.G. As for the experimental part:
were tested as gastric secretory depressants in the unanesthesized rat with acute gastric fistula by the following procedure:
During this baseline period, the pH of the secretory flow was about 1.5 for each animal. Individual samples were collected at 10-minute intervals during this baseline period to monitor the pH. The compounds dissolved in polyethylene glycol-400 were administered intragastrically (I.G.) after this baseline period and samples were continuously collected for up to 180 minutes. The samples of gastric contents were subsequently assayed for volume, total acid concentration (μEq/ml) and total acid output for 10 minutes (μEq/10 minutes).
In addition to intragastric (I.G.) dosages, the activity of these compounds was tested for intraduodenal (I.D.) and intravenous administration (I.V.) to unanesthetized rats with acute gastric fistula as described above. For I.D. administration, the compounds were dissolved in polyethylene glycol-400. On the other hand, a trimethylolnitro-methane/ethanol solution was used for I.V. dosing. […] With this dose and route of administration of Compound A, a pronounced effect on pH was seen, an average increase of 3.1 pH units over 3 hours post administration. With the I.G. dose of Compound A of 5 μg/Kg b.w., an average increase of 1.6 pH units occurred. […] The antisecretory effect of Compound A seen after I.V. administration (10 μg/Kg b.w.) was low, amounting to about 1/4 to 1/5 that seen following I.G. dosage of Compound A. With the I.V. route of administration at this dose of Compound A (10 μg/Kg b.w.) effect on pH was minimal, 1/10 to 1/20 that seen after I.G. administration of an identical dose of Compound A.

The mark [1] stands for this setting: 20 minutes after administration.
The mark [2] stands for this setting: 30 minutes after administration.
Setting [3] is: 40 minutes after administration.
Where [4] appears, read: 50 minutes after administration.
Setting [5] is: 60 minutes after administration.
The mark [6] stands for this setting: 70 minutes after administration.
The mark [7] stands for this setting: 80 minutes after administration.
[8] abbreviates: 90 minutes after administration.

For the compound `CCCCC(C)(C)[C@H](O)/C=C/C1[C@H](C)CC(=O)[C@@H]1C/C=C\CCCC(=O)O` (stereo in doubt) [Compound B, (8R,11R,12S,15R,5Z,13E)-15-hydroxy-11,16,16-trimethyl-9-oxoprosta-5,13-dien-1-oic acid, reference compound], the “% Inhibition, acid concentration (S.E.M.)” value under setting [1] is 62 (5) %; the “% Inhibition, acid concentration (S.E.M.)” value under setting [2] is recorded as 67 (6) %; the “% Inhibition, acid concentration (S.E.M.)” value under setting [3] was 58 (6) %; the “% Inhibition, acid concentration (S.E.M.)” value under setting [4] is on record as 59 (5) %; the “% Inhibition, acid concentration (S.E.M.)” value under setting [5] was 43 (5) %; the “% Inhibition, acid concentration (S.E.M.)” value under setting [6] is listed as 45 (5) %. In addition, the “% Inhibition, acid concentration (S.E.M.)” value was 44 (6) % under setting [7] and 25 (13) % under setting [8]. In addition, the “% Inhibition, acid output (S.E.M.)” value is, setting by setting: under setting [1], 69 (3) %; under setting [2], 72 (2) %; under setting [3], 68 (6) %; under setting [4], 73 (2) %; under setting [5], 78 (7) %; under setting [6], 71 (3) %. The “% Inhibition, acid output (S.E.M.)” value was 77 (7) % under setting [7] and 57 (17) % under setting [8].
